In ChEMBL document CHEMBL2407026, “11β-HSD1 inhibitors from Walsura cochinchinensis” (J Nat Prod, 2013):

target: 11-beta-hydroxysteroid dehydrogenase 1 (Mus musculus, UniProt P50172); experiment: Inhibition of mouse microsomal 11beta-HSD1 overexpressed in HEK293 cells using [3H]-cortisone as substrate assessed as formation of [3H]-cortisol by scintillation proximity assay in presence of NADPH
Sequence (P50172 whole entry): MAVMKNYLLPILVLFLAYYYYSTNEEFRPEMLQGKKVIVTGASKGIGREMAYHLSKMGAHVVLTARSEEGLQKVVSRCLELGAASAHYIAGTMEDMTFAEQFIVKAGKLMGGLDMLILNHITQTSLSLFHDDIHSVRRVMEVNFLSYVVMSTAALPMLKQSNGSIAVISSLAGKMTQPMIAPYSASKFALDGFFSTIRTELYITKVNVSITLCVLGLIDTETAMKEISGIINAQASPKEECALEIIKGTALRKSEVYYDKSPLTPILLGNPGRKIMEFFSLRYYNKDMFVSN

| IC50 [µM] | SMILES |
| --- | --- |
| 1.15 | CC(C)=CC(=O)[C@@H](O)[C@H](C)[C@@H]1CC[C@]2(C)C3=CC[C@H]4C(C)(C)[C@@H](O)CC[C@]4(C)[C@H]3C[C@@H](O)[C@@]12C |
| 0.82 | CC(C)(O)[C@@H](O)[C@H]1C[C@@H]([C@@H]2CC[C@]3(C)C4=CC[C@H]5C(C)(C)[C@@H](O)CC[C@]5(C)[C@H]4CC[C@@]23C)C(=O)O1 |

target: T1, 11-beta-hydroxysteroid dehydrogenase 1 (Homo sapiens, UniProt P28845); experiment: Inhibition of human microsomal 11beta-HSD1 overexpressed in HEK293 cells using [3H]-cortisone as substrate assessed as formation of [3H]-cortisol by scintillation proximity assay in presence of NADPH
Target sequence in this assay (P28845 whole entry): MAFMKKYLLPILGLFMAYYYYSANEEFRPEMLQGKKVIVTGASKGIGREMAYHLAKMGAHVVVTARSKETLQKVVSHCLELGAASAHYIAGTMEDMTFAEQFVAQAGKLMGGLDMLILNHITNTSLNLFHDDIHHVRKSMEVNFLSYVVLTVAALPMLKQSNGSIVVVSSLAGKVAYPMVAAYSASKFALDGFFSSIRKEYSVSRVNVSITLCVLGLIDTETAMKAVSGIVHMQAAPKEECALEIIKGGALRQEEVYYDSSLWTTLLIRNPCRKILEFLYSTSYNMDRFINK

| IC50 [µM] | SMILES |
| --- | --- |
| 11.4 | CCC(C)C(=O)O[C@@H]1C[C@H]2C(C)(C)C(=O)C=C[C@]2(C)[C@H]2[C@@H](OC(C)=O)C[C@]3(C)C(=CC(=O)[C@H]3c3ccoc3)[C@@]21C (relative stereo) |
| 3.74 | CC(C)=CC(=O)[C@@H](O)[C@H](C)[C@@H]1CC[C@]2(C)C3=CC[C@H]4C(C)(C)[C@@H](O)CC[C@]4(C)[C@H]3C[C@@H](O)[C@@]12C |
| 3.2 | CC(C)(O)[C@@H](O)[C@H]1C[C@@H]([C@@H]2CC[C@]3(C)C4=CC[C@H]5C(C)(C)[C@@H](O)CC[C@]5(C)[C@H]4CC[C@@]23C)C(=O)O1 |

target: 11-beta-hydroxysteroid dehydrogenase 1 (Mus musculus) (UniProt P50172); experiment: Inhibition of mouse microsomal 11beta-HSD1 overexpressed in HEK293 cells using [3H]-cortisone as substrate assessed as formation of [3H]-cortisol at 10 uM by scintillation proximity assay in presence of NADPH relative to control
Sequence (P50172 whole entry, looked up): as the sequence (P50172 whole entry) above

| inhibition [%] | SMILES |
| --- | --- |
| > 60 | CC(C)=CC(=O)[C@@H](O)[C@H](C)[C@@H]1CC[C@]2(C)C3=CC[C@H]4C(C)(C)[C@@H](O)CC[C@]4(C)[C@H]3C[C@@H](O)[C@@]12C |
| 45 | CC(C)=CC(=O)[C@@H](O)[C@H](C)[C@@H]1CC[C@]2(C)C3=CC[C@H]4C(C)(C)[C@H](O)CC[C@]4(C)[C@H]3C[C@@H](O)[C@@]12C |
| > 60 | CC(C)(O)[C@@H](O)[C@H]1C[C@@H]([C@@H]2CC[C@]3(C)C4=CC[C@H]5C(C)(C)[C@@H](O)CC[C@]5(C)[C@H]4CC[C@@]23C)C(=O)O1 |

target: T1, 11-beta-hydroxysteroid dehydrogenase 1; experiment: Inhibition of human microsomal 11beta-HSD1 overexpressed in HEK293 cells using [3H]-cortisone as substrate assessed as formation of [3H]-cortisol at 10 uM by scintillation proximity assay in presence of NADPH relative to control
Target sequence in this assay (P28845 whole entry, looked up): as the sequence (P28845 whole entry) above

| inhibition [%] | SMILES |
| --- | --- |
| > 50 | CCC(C)C(=O)O[C@@H]1C[C@H]2C(C)(C)C(=O)C=C[C@]2(C)[C@H]2[C@@H](OC(C)=O)C[C@]3(C)C(=CC(=O)[C@H]3c3ccoc3)[C@@]21C (relative stereo) |
| > 60 | CC(C)=CC(=O)[C@@H](O)[C@H](C)[C@@H]1CC[C@]2(C)C3=CC[C@H]4C(C)(C)[C@@H](O)CC[C@]4(C)[C@H]3C[C@@H](O)[C@@]12C |
| 45 | CC(C)=CC(=O)[C@@H](O)[C@H](C)[C@@H]1CC[C@]2(C)C3=CC[C@H]4C(C)(C)[C@H](O)CC[C@]4(C)[C@H]3C[C@@H](O)[C@@]12C |
| > 60 | CC(C)(O)[C@@H](O)[C@H]1C[C@@H]([C@@H]2CC[C@]3(C)C4=CC[C@H]5C(C)(C)[C@@H](O)CC[C@]5(C)[C@H]4CC[C@@]23C)C(=O)O1 |
